Target: central benzodiazepine receptors (specific benzodiazepine receptors in the cerebral cortex)
Experiment: Inhibition of the specific binding of tritiated diazepam at the specific benzodiazepine receptors in the cerebral cortex (affinity to central benzodiazepine receptors)
Details: read-out: Affinity to benzodiazepine receptors IC 50
Description: The affinity of compounds of formula I to the central benzodiazepine receptors has been determined according to the method described in Life Science 20, 2101-2110 (1977) and Science 198, 849-851 (1977). According to this method, the inhibition of the binding of tritiated diazepam at the specific benzodiazepine receptors in the cerebral cortex by the respective test substances is ascertained. The IC50 ("50% inhibiting concentration") is that concentration of the respective test substance which brings about a 50 percent inhibition of the specific binding of the tritiated diazepam at the specific benzodiazepine receptors in the cerebral cortex.

C=CC(C)(O)C#Cc1ncn2c1CN(C)C(=O)c1c(Cl)cccc1-2 (stereo not drawn) [E, 7-chloro-4,5-dihydro-3-(3-hydroxy-3-methyl-4-penten-1-ynyl)-5-methyl-6H-imidazo[1,5-a][1,4]benzodiazepin-6-one]
IC50: 3.7 nM

CN1Cc2c(C#CCOCC3CC3)ncn2-c2cccc(Cl)c2C1=O [A, 7-Chloro-3-[3-(cyclopropylmethoxy)-1-propynyl]-4,5-dihydro-5-methyl-6H-imidazo[1,5-a][1,4]benzodiazepin-6-one]
IC50: 1.4 nM

CC(=O)OCC#Cc1ncn2c1CN(C)C(=O)c1c(Cl)cccc1-2 [B, 3-(7-chloro-5,6-dihydro-5-methyl-6-oxo-4H-imidazo[1,5-a][1,4]benzodiazepin-3-yl)-2-propynyl acetate]
IC50: 2.6 nM

CN1Cc2c(C#CC(C)(C)OCC3CC3)ncn2-c2cccc(Cl)c2C1=O [C, 7-chloro-3-[3-(cyclopropylmethoxy)-3-methyl-1-butynyl]-4,5-dihydro-5-methyl-6H-imidazo[1,5-a][1,4]benzodiazepin-6-one]
IC50: 5 nM

C/C(C#Cc1ncn2c1CN(C)C(=O)c1c(Cl)cccc1-2)=C\CO [F, 7-chloro-4,5-dihydro-3-[(E)-5-hydroxy-3-methyl-3-penten-1-ynyl]-5-methyl-6H-imidazo[1,5-a][1,4]-benzodiazepin-6-one]
IC50: 2.2 nM

C/C(C#Cc1ncn2c1CN(C)C(=O)c1c(Cl)cccc1-2)=C/CO [D, 7-chloro-4,5-dihydro-3-[(Z)-5-hydroxy-3-methyl-3-penten-1-ynyl]-5-methyl-6H-imidazo[1,5-a][1,4]-benzodiazepin-6-one]
IC50: 1.4 nM
